Results on 16 molecules are retold here after US8609650B2, “Bridged bicyclic aryl and bridged bicyclic heteroaryl substituted triazoles useful as Axl inhibitors” (Rigel Pharmaceuticals, Inc., priority 2006, dated 2013).

The target of the assay is T1, Axl (Homo sapiens, UniProt P30530).
T1 construct: endogenous in cells; host or cells: HeLa cells
T1 sequence (P30530 26-894): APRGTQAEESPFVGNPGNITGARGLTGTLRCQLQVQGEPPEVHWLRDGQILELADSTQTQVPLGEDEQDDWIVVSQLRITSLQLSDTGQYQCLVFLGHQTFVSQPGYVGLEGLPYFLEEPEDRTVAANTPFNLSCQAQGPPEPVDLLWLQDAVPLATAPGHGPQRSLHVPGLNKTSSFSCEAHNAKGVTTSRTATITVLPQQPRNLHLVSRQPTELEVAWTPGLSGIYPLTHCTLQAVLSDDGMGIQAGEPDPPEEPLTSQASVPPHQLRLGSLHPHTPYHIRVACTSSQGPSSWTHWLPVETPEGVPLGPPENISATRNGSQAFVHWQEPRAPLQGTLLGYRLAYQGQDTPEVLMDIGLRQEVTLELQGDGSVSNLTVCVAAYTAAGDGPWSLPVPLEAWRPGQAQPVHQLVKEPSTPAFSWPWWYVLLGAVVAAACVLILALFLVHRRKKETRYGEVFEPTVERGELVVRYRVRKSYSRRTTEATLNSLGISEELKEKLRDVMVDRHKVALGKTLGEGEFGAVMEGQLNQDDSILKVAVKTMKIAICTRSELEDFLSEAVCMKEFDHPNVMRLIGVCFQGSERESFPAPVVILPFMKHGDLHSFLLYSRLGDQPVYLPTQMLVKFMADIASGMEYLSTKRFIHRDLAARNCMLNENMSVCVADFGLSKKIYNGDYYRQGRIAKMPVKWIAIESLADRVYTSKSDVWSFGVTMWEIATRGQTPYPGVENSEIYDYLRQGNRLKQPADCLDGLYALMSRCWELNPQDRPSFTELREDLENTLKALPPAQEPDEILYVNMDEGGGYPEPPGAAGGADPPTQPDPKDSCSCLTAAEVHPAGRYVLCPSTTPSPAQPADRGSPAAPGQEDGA
The assay is described as follows: Phospho-Akt In-Cell Western Assay (ability to inhibit Axl activity). In kind it is cell-based. The following applies: Hela cells, stimulated by Axl-antibody cross-linking, phospho-Akt chemiluminescence normalized to relative cell number. The method, then: The compounds of the invention were tested in the following assay for their ability to inhibit Axl activity.
Phospho-Akt In-Cell Western Assay
• Cell culture plate: 96 well assay plate (Corning 3610), white, clear bottom, tissue-culture treated. • Cells: Hela cells. • Starvation medium: For Axl stimulation: 0.5% FCS (fetal calf serum) in DMEM, plus Axl/Fc (extracellular domain of AXL fused to immunoglobulin Fc region) (R&D, 154-AL) 500 ng/mL. • For EGF (epidermal growth factor) stimulation: 0.5% FCS in DMEM (Dulbecco's modified Eagles medium). • Poly-L-Lysine 0.01% solution (the working solution): 10 μg/ml, dilute In PBS (phosphate buffered saline). • Axl antibody cross-linking: • 1st: Mouse anti-Axl (R&D, MAB154). • 2nd: Biotin-SP-conjugated AffiniPure goat anti-mouse IgG (H+L) (Jackson ImmunoResearch #115-065-003). • Fixing buffer: 4% formaldehyde in PBS. • Wash buffer: 0.1% TritonX-100 in PBS. • Quenching buffer: 3% H2O2, 0.1% Azide in wash buffer, Azide and hydrogen peroxide (H2O2) are added fresh. • Blocking buffer: 5% BSA in TBST (tris buffered saline plus 0.1% Tween 20). • Primary antibody: Rabbit anti-human Phospho-Akt antibody (Cell Signaling 9271): 1×250 diluted in blocking buffer. • Secondary antibody: HRP (horse radish peroxidase)-conjugated Goat anti-Rabbit secondary, stock solution: Jackson ImmunoResearch (Goat anti-Rabbit HRP, #111-035-144) 1:1 diluted in glycerol, store at −20° C. The working solution: 1×2000 dilution of stock in blocking buffer. • Chemiluminescent working solution (Pierce, 37030): SuperSignal ELISA (enzyme linked immunosorbant assay) Pico Chemiluminescent substrate. • Crystal Violet solution: Stock: 2.5% Crystal violet in methanol, filtered and kept at ambient temperature. The working solution: dilute the stock 1:20 with PBS immediately before use. • 10% SDS: working solution: 5% SDS (sodium dodecylsulfate), diluted in PBS Methods: Day 1:
A 96 well TC (tissue culture treated) plate was coated with 10 μg/mL poly-L-Lysine at 37° C. for 30 min, washed twice with PBS, and air-dried for 5 minutes before cells were added. Hela cells were seeded at 10,000 cells/well and the cells were starved in 100 μL starvation medium containing Axl/Fc for 24 hrs.
The cells were pre-treated with test compounds by adding 100 μL of 2× test compound to the starvation medium on the cells. The cells were incubated at 37° C. for 1 hr before stimulation.
The cells were stimulated by Axl-antibody cross-linking as follows: A 5×1st/2nd Axl antibody mixture was made (37.5 μg/mL 1st/100 μg/mL 2nd) in starvation medium and nutated at 4° C. with thorough mixing for 1-2 hours for clustering. The resulting mix was warmed to 37° C. 50 μL of 5× Axl 1st/2nd of antibody cluster was added to the cells and the cells were incubated at 37° C. for 5 min.
After 5 minutes stimulation, the plate was flicked to remove medium and the plate was tapped onto paper towels. Formaldehyde (4.0% in PBS, 100 μL) was added to fix the cells and the cells were incubated at ambient temperature for 20 min without shaking.
The cells were washed with a plate washer buffer to remove the formaldehyde solution. The plate was flicked to removed excess wash buffer and tapped onto paper towels. Quenching buffer (100 μL) was added to each well and the cells were incubated at ambient temperature for 20 minutes without shaking.
The cells were washed with a plate washer buffer to remove the quenching buffer. Blocking buffer (100 μL) was added and the cells were incubated at ambient temperature for at least an hour with gentle shaking.
The cells were washed with a plate washer buffer and diluted primary antibody (50 μL) was added to each well (blocking buffer was added to the negative control wells instead). The plates were incubated overnight at 4° C. with gentle shaking.
The wash buffer was removed, diluted secondary antibody (100 μL) was added, and the cells were incubated at ambient temperature for 1 hour with gentle shaking. […]

As a reminder, the IC50 is the concentration needed to halve the response being measured. Read a high IC50 as weaker potency in that assay. In turn, `Nc1nc(Nc2ccc3c(c2)CCC(N2CCCC2)CC3)nn1-c1cc(-c2ccccc2)c2c(n1)C1CCC2C1` (stereo not shown) [Compound 49, 1-(5,8-methano-4-phenyl-5,6,7,8-tetrahydroquinoline-2-yl)-N^3-(7-pyrrolidin-1-yl-6,7,8,9-tetrahydro-5H-benzo[7]annulene-3-yl)-1H-1,2,4-triazole-3,5-diamine] came in with an IC50 below 1 µM.

For the molecule `CN1CCN(C2CCN(c3ccc(Nc4nc(N)n(-c5cc(-c6cccs6)c6c(n5)C5CCC6C5)n4)cc3F)CC2)CC1` (stereo not shown) [Compound 47, 1-(5,8-methano-4-thiophen-2-yl-5,6,7,8-tetrahydroquinoline-2-yl)-N^3-(3-fluoro-4-(4-(4-methylpiperazin-1-yl)piperidin-1-yl)phenyl)-1H-1,2,4-triazole-3,5-diamine], the IC50 was below 1 µM. `CC1(C)[C@H]2Cc3ccc(-n4nc(Nc5ccc(N6CCN(C7CC8CCC7C8)CC6)c(F)c5)nc4N)nc3[C@@H]1C2` (stereo partly drawn) [Compound 39, 1-(7,7-dimethyl-(6R,8R)6,8-methano-5,6,7,8-tetrahydroquinoline-2-yl)-N^3-(3-fluoro-4-(4-bicyclo[2.2.1]heptan-2-ylpiperazin-1-yl)phenyl)-1H-1,2,4-triazole-3,5-diamine] returned an IC50 above 20 µM. Then `COc1cc2ncnc(-n3nc(Nc4ccc5c(c4)CC4CCC(C5)C4N4CCCC4)nc3N)c2cc1OC` (stereo not shown) [Compound 16, 1-(6,7-dimethoxyquinazolin-4-yl)-N^3-(7-pyrrolidin-1-yl-6,8-ethano-6,7,8,9-tetrahydro-5H-benzo[7]annulene-3-yl)-1H-1,2,4-triazole-3,5-diamine], with below 1 µM; and `Nc1nc(Nc2ccc(N3CCC(N4CCCC4)CC3)c(F)c2)nn1-c1cc(-c2ccncc2)c2c(n1)C1CCN2CC1` [Compound 32, 1-(1,4-ethano-8-pyridin-4-yl-1,2,3,4-tetrahydro-1,5-naphthyridin-6-yl)-N^3-(3-fluoro-4-(4-(pyrrolidin-1-yl)piperidin-1-yl)phenyl)-1H-1,2,4-triazole-3,5-diamine], with below 1 µM. Then `Nc1nc(Nc2ccc(N3CCC(N4CCCC4)CC3)c(F)c2)nn1-c1cc(-c2ccccc2)c2c(n1)C1CCC2C1` (stereo not shown) [Compound 43, 1-(5,8-methano-4-phenyl-5,6,7,8-tetrahydroquinoline-2-yl)-N^3-(3-fluoro-4-(4-(pyrrolidin-1-yl)piperidin-1-yl)phenyl)-1H-1,2,4-triazole-3,5-diamine], with below 1 µM. Then `Nc1nc(Nc2ccc(N3CCN(C4CCCCCCC4)CC3)cc2)nn1-c1ncc2c(n1)C1CCC2C1` (stereo not shown) [Compound 9, N^3-(4-(4-cyclooctylpiperazin-1-yl)phenyl)-1-(5,8-methano-5,6,7,8-tetrahydroquinazolin-2-yl)-1H-1,2,4-triazole-3,5-diamine], with below 1 µM; and `CCOC(=O)C1CCN(C2CCN(c3ccc(Nc4nc(N)n(-c5cc(-c6ccccc6)c6c(n5)C5CCN6CC5)n4)cc3F)CC2)CC1` [Compound 58, (1,4-ethano-8-phenyl-1,2,3,4-tetrahydro-1,5-naphthyridin-6-yl)-N^3-(3-fluoro-4-(4-(4-ethyloxycarbonylpiperidin-1-yl)piperidin-1-yl)phenyl)-1H-1,2,4-triazole-3,5-diamine], with below 1 µM. `CCN(CC)C1CCN(c2ccc(Nc3nc(N)n(-c4ncnc5c4C4CCC5C4)n3)cc2F)CC1` (stereo not shown) [Compound 17, 1-(5,8-methano-5,6,7,8-tetrahydroquinazolin-4-yl)-N^3-(3-fluoro-4-(4-diethylaminopiperidin-1-yl)phenyl)-1H-1,2,4-triazole-3,5-diamine] registered an IC50 below 1 µM.

In turn, `Cc1cc(Nc2nc(N)n(-c3cc(-c4ccccc4)c4c(n3)C3CCN4CC3)n2)cnc1N1CCN(CC2CC2)CC1` [Compound 50, 1-(1,4-ethano-8-phenyl-1,2,3,4-tetrahydro-1,5-naphthyridin-6-yl)-N^3-(3-methyl-2-(4-cyclopropylmethylpiperazin-1-yl)pyridine-5-yl)-1H-1,2,4-triazole-3,5-diamine] registered an IC50 below 1 µM. Then `Nc1nc(Nc2ccc(N3CCN(C4CCCCC4)CC3)c(F)c2)nn1-c1cc(-c2ccccc2)c2c(n1)C1CCC2C1` (stereo not shown) [Compound 44, 1-(5,8-methano-4-phenyl-5,6,7,8-tetrahydroquinoline-2-yl)-N^3-(3-fluoro-4-(4-cyclohexylpiperazin-1-yl)phenyl)-1H-1,2,4-triazole-3,5-diamine], with 1 to 10 µM. In the case of `Nc1nc(Nc2ccc(N3CCN(C4CCCCC4)CC3)cc2)nn1-c1ncc2c(n1)C1CCC2C1` (stereo not shown) [Compound 6, 1-(5,8-methano-5,6,7,8-tetrahydroquinazolin-2-yl)-N^3-(4-(4-cyclohexanylpiperazin-1-yl)phenyl)-1H-1,2,4-triazole-3,5-diamine], the IC50 is below 1 µM. Then `Nc1nc(Nc2ccc(N3CCN(C4CCCCCC4)CC3)cc2)nn1-c1ncc2c(n1)C1CCC2C1` (stereo not shown) [Compound 10, N^3-(4-(4-cycloheptylpiperazin-1-yl)phenyl)-1-(5,8-methano-5,6,7,8-tetrahydroquinazolin-2-yl)-1H-1,2,4-triazole-3,5-diamine], with below 1 µM; and `CN1CCN(c2ccc(Nc3nc(N)n(-c4cc(-c5ccccc5)c5c(n4)C4CCN5CC4)n3)cn2)CC1` [Compound 28, 1-(1,4-ethano-8-phenyl-1,2,3,4-tetrahydro-1,5-naphthyridin-6-yl)-N^3-(2-(4-methylpiperazin-1-yl)pyridine-5-yl)-1H-1,2,4-triazole-3,5-diamine], with below 1 µM; and `Nc1nc(Nc2ccc3c(c2)CCC(N2CCCC2)CC3)nn1-c1cc(-c2ccccc2)c2c(n1)C1CCN2CC1` (stereo not shown) [Compound 72, 1-(1,4-ethano-8-phenyl-1,2,3,4-tetrahydro-1,5-naphthyridin-6-yl)-N^3-(7-pyrrolidin-1-yl-6,7,8,9-tetrahydro-5H-benzo[7]annulene-3-yl)-1H-1,2,4-triazole-3,5-diamine], with below 1 µM. Then `CN1CCN(C2CCN(c3ccc(Nc4nc(N)n(-c5cc(-c6ccccc6)c6c(n5)C5CCN6CC5)n4)cc3F)CC2)CC1` [Compound 41, 1-(1,4-ethano-8-phenyl-1,2,3,4-tetrahydro-1,5-naphthyridin-6-yl)-N^3-(3-fluoro-4-(4-(4-methylpiperazin-1-yl)piperidin-1-yl)phenyl)-1H-1,2,4-triazole-3,5-diamine], with below 1 µM.
